Results as given in patent US5998366A, “Method for ameliorating glutamic acid decarboxylase associated autoimmune disorders” (The Regents of the University of California, priority 1997, dated 1999).

Assays:
[1] = tested on: female NOD mice; experiment: Insulitis score after tolerance induction; type: in vivo; settings: Table 8A: i.v. injection at 3 weeks of age in PBS, examined at 12 weeks; scale 0-4; mean ± SE
Method: 1. In these experiments female NOD mice were intravenously injected at 3 weeks of age with 50 μg GAD, μ-galactosidase, mycobacterial hsp65 (m-hsp) or 0.1 μg of the immunodominant hsp peptide (hsp-p), in PBS. At 12 weeks of age, mice were examined for insulitis and autoantigen reactive T-cells. At this age both indications are established in untreated NOD mice. Pancreatic tissue sections were stained by immunoperoxidase techniques for insulin and were counterstained with hematoxylin. Insulitis was scored in a blinded manner by examining 54 to 87 islets on 5 interrupted tissue sections from each pancreas. Proliferative splenic T-cell responses induced by various antigens were performed as described above in Example 4. Data in Table 8 are expressed as the average [^3 H]-thymidine label (cpm) incorporated in triplicate cultures.
2. In a second set of experiments neonatal female NOD mice were injected intraperitoneally IFA with peptide 11, a mixture of peptides 34 and 35 plus IFA, or with IFA alone and at 12 weeks of age the mice were examined for insulitis and autoantigen reactive T-cells as in Example 6.1. Proliferative splenic T-cell responses induced by the various antigens were performed as in Example 4, and data in Table 8B are expressed as the average [^3 H]-thymidine label (cpm) incorporated in triplicate cultures.
3. In a third set of experiments female NOD mice were intravenously injected at three weeks of age with peptide 11 (control), a mixture of peptides 34 and 35 plus IFA, or with HEL peptides and at 12 weeks of age the mice were examined for insulitis and autoantigen reactive T-cells as in Example 6.1. Proliferative splenic T-cell responses induced by the various antigens were performed as in Example 4, and data in Table 8C are expressed as the average [^3 H]-thymidine label (cpm) incorporated in triplicate cultures.

[2] = tested on: spleen cells of treated female NOD mice; experiment: Proliferative splenic T-cell responses to antigens after tolerance induction; type: in vivo; settings: Table 8A: i.v. at 3 weeks, tested at 12 weeks
[3] = tested on: female NOD mice; experiment: GAD immunization of 8 week old NOD mice, onset of IDDM; type: in vivo; settings: again every 6 weeks
Excerpt: An IPTG inducible T7 expression vector was used to express both human GAD65 and E. coli b galactosidase (β-gal). In IPTG induced recombinant E. coli, GAD and β-gal constitute about 10-20% of the total bacterial protein. However, almost all of the GAD was in inclusion bodies, which could be isolated and extensively washed to obtain material that is about 80% GAD. We then did affinity purifications of GAD and β-gal on the basis of a hexa-histidine "tag" which was attached to GAD during the subcloning process. These extra histidine residues allow the rapid affinity purification (Novagen) of GAD by metal affinity chromatography (Hochuli, et al., Bio Technology, 6:1321-1325, 1988). The inclusion body material is solubilized in 6M guanidine hydrochloride (GHCL), 10 mm β-mercaptoethanol and 1% triton X-100. After binding to the column, the column was extensively washed with GHCL and 8M urea in phosphate buffers. Only the central peak GAD fraction was utilized for subsequent studies. Human GAD65 shares 96% amino acid sequence identity with murine GAD65, with most of the amino acid differences being conservative substitutions.
Breeder mice were purchased from Taconic Farms and housed under specific pathogen-free conditions. Only female NOD mice were used in this study. The average age of IDDM onset in unrelated females in the colony was 22 weeks. Insulitis is generally observed beginning at 4 weeks of age. T cell responses to GAD, HSP, CPH were found by 6 weeks in age. The incidence of IDDM in female mice is 70-90% by one year of age.
At 8 weeks of age, 25 ug GAD or control β-gal. was injected intraperftoneally (ip) in 100 ul of incomplete Freunds adjuvant (IFA). Because there may be a requirement for continual antigen presentation (Ramsdell, et al., Science, 257:1130-1133, 1992) mice were treated again every 6 weeks. Urine glucose levels were monitored twice weekly. After observing above normal glucose in urea, blood glucose levels were monitored twice weekly. Two consecutive blood glucose level readings of […] was considered as IDDM onset, after which the mice were sacrificed and spleen cells were tested as described above in Example 6 for evidence of spleen cell proliferation.

[4] = tested on: spleen cells of NOD mice; experiment: Proliferative recall response of spleen cells to β-cell antigens, by age; type: cell-based; settings: female NOD mice, 10 μg/ml antigen or 7 μM peptide, 72 h culture (FIG. 8)
Method: NOD (Taconic farms) and BALB/c mice (Jackson Laboratories) were kept under specific pathogen free conditions. The mice were sacrificed at the ages indicated and the spleen cells were tested directly ex vivo for their proliferative recall response to antigen. Single cell suspensions of spleen cells were plated at 1×10^6 cells per well in 96 well microtiter plates in 200 μl serum free HL-1 medium (Ventrex) that was supplemented with 2 mM glutamine with or without 10 μg/ml antigen (or 7 μM peptide) in triplicate cultures. During the last 16 h of the 72 h culture period, 1 μCi[^3 H]-thymidine was added per well. Incorporation of label was measured by liquid scintillation counting.
Both human GAD65 (Bu, et al., Proc. Natl. Acad. Sci., 89:2115-2119, 1992) and E. coli β-gal (control) were purified from recombinant bacteria on the basis of a hexahistidine tag which allows their rapid affinity purification by metal affinity chromatography (Hochuli, et al., Bio/Technology, 6:1321-1325, 1988). Bovine CPH was the generous gift of L. Fricker (Albert Einstein Col. Med.) and human insulin was purchased from Eli Lilly.

[5] = target: T1, 64 kD pancreatic polypeptide (Homo sapiens, UniProt Q05329); experiment: Prior absorption of patient sera, then immunoprecipitation of the 64 kD islet cell polypeptide; type: binding
T1 construct: antibodies which recognize specific polypeptides produced in human pancreatic islet cells; endogenous in cells; host or cells: human pancreatic islet cells from cadaveric pancreas, metabolically labelled with 35S-methionine
T1 sequence (Q05329 whole entry): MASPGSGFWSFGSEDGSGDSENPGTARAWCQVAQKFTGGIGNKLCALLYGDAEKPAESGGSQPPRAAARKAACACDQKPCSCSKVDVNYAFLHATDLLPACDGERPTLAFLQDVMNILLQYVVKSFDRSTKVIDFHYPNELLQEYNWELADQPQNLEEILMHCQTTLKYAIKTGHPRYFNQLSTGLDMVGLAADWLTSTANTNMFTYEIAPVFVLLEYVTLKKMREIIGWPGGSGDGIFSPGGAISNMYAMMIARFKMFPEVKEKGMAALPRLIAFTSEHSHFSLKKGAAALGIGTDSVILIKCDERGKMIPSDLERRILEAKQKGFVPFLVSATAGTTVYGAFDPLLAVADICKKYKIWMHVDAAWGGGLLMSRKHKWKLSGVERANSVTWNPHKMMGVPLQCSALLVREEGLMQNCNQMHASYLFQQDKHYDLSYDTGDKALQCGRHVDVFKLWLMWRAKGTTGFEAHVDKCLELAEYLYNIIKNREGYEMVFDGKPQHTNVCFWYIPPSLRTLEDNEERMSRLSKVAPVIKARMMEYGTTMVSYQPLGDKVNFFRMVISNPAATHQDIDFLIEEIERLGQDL
Excerpt: 4. Human Islet Cells. Human pancreatic islets were isolated from cadaveric pancreases and maintained in vitro as previously described (Ricordi, et al., Diabetes, 37:413-420, 1988). The islet cells were metabolically labeled with ^35 S methionine (Amersham, Arlington Heights, Ill.) in vitro (95% air/5%CO2).
5. Islet Cell Extractions and Immunoprecipitations. Islet cells were extracted as previously described by Atkinson, et al. (Lancet, 335:1357-1360, 1990) with the following modifications. […] Following another incubation with protein A Sepharose CL-4B (1 h, 4° C.), the complexes were then washed 5 times with 50 mM Tris HCL (pH 7.4) with 0.1% SDS, 1.0% Triton X-114, and 2 mM EDTA, and then washed again one time in double distilled water. The protein A Sepharose CL-4B was then boiled in Laemmli sample buffer (Laemmli, Nature, 227:680-685, 1970), and the samples were subjected to SDS-PAGE and fluororadiography (Kodak, X-omat AR5) using Enhance (New England Nuclear). Alternatively, the autoradiographs were analyzed by a BETAGEN (Boston, Mass.) analyzer. Both 64 KA positive and negative sera were used in each assay, to serve as interassay controls. All fluororadiographs were analyzed and rated as positive or negative after comparison with the known interassay controls.

[6] = tested on: IDDM autoantibodies in sera of human patients; experiment: Immunoprecipitation of 35S-labeled GAD65 segments by IDDM patient sera; type: binding; settings: 22 IDDM patient sera, 30 μl serum
Excerpt: Portions of human GAD65 cDNA were amplified by the polymerase chain reaction (PCR; Saiki, et al., Science, 239:487, 1988) to produce DNA segments encoding three polypeptide segments: amino acid residues 1-224 (segment A); 224-398 (segment B); and 398-585 (segment C). Each construct also contained a T7 promoter, a consensus sequence for the initiation of translation and an initiating methionine codon (Korak, M., J. Cell Biol., 108:229, 1989). Each PCR product was then trascribed in vitro with T7 RNA polymerase and translated in vitro in a rabbit reticulocyte cell-free system in the presence of ^35 S-methionine, using conditions recommended by the supplier (Amersham Corp., Arlington Heights, Ill.). Each test serum (30 μl) was incubated with the resulting ^35 S labeled-polypeptides. The bound peptides were isolated with PAS and analyzed by SDS-PAGE in 12% polyaacrylamide and autoradiography.

For “β-Gal.: E. coli β-galactosidase (control antigen) purified from recombinant bacteria by hexahistidine tag [reference compound]”, the “Insulitis Score” value [1] was 2.6 ± 0.6, the “Spleen Cell Proliferation (SI ± SEM) CPH” value ([2]; recall antigen CPH) was 11.5 ± 0.9 SI and the “Spleen Cell Proliferation (SI ± SEM) GAD” value ([2]; recall antigen GAD) was 15.4 ± 1.8 SI. For the same molecule, the “Spleen Cell Proliferation (SI ± SEM) GAD Peptides #17” value ([2]; recall antigen GAD peptide #17) was 5.1 ± 0.6 SI, the “Spleen Cell Proliferation (SI ± SEM) GAD Peptides #34” value ([2]; recall antigen GAD peptide #34) was 5.1 ± 0.6 SI and the “Spleen Cell Proliferation (SI ± SEM) GAD Peptides #35” value ([2]; recall antigen GAD peptide #35) was 4.0 ± 0.2 SI. For the same molecule, the “Spleen Cell Proliferation (SI ± SEM) hsp Peptide” value ([2]; recall antigen hsp peptide) was 6.6 ± 0.5 SI, the “Spleen Cell Proliferation (SI ± SEM) β-Gal” value ([2]; recall antigen β-Gal) was 1.1 ± 0.1 SI and the “mice that developed IDDM by 27 weeks in age” value ([3]; 25 ug ip in IFA at 8 weeks of age) was 6/10. For the same molecule, the “treated mice remaining disease free at 52 weeks of age” value ([3]; 25 ug ip in IFA at 8 weeks, 10 mice per group) was 2.

In the case of “CPH: bovine carboxypeptidase H, gift of L. Fricker [reference compound]”, the “age at which the proliferative T-cell response to the antigen appeared” value [4] is reported as no more than 8 weeks.

With “bacterially produced GAD65: GAD65 expressed in bacteria, used to absorb patient sera” the “ability of the absorbed sera to recognize the 64 kD pancreatic polypeptide” value [5] was “abolished”.

With “segment B: human GAD65 amino acid residues 224-398, translated in vitro, 35S labeled” the “patients with antibodies reactive with the segment” value (shortened to “patients with antibodies reactive”) [6] was 41%.

For “insulin: human insulin purchased from Eli Lilly [reference compound]”, the “age at which the proliferative T-cell response to the antigen appeared” value [4] was 12 weeks.

B1: segment A: human GAD65 amino acid residues 1-224, translated in vitro, 35S labeled (protein, UniProt Q05329 1-224, looked up, fragment)
chain: MASPGSGFWSFGSEDGSGDSENPGTARAWCQVAQKFTGGIGNKLCALLYGDAEKPAESGGSQPPRAAARKAACACDQKPCSCSKVDVNYAFLHATDLLPACDGERPTLAFLQDVMNILLQYVVKSFDRSTKVIDFHYPNELLQEYNWELADQPQNLEEILMHCQTTLKYAIKTGHPRYFNQLSTGLDMVGLAADWLTSTANTNMFTYEIAPVFVLLEYVTLKKM
modifications: 35S label
notes: human GAD65 amino acid residues 1-224, translated in vitro, 35S labeled
In the case of B1, the “patients with antibodies reactive” value [6] is reported as “none”.

B2: segment C: human GAD65 amino acid residues 398-585, translated in vitro, 35S labeled (protein, UniProt Q05329 398-585, looked up, fragment)
chain: MGVPLQCSALLVREEGLMQNCNQMHASYLFQQDKHYDLSYDTGDKALQCGRHVDVFKLWLMWRAKGTTGFEAHVDKCLELAEYLYNIIKNREGYEMVFDGKPQHTNVCFWYIPPSLRTLEDNEERMSRLSKVAPVIKARMMEYGTTMVSYQPLGDKVNFFRMVISNPAATHQDIDFLIEEIERLGQDL
modifications: 35S label
notes: human GAD65 amino acid residues 398-585, translated in vitro, 35S labeled
In the case of B2, the “patients with antibodies reactive” value [6] is reported as 27%.
